From patent US5574008A, “Biologically active fragments of glucagon-like insulinotropic peptide” (Eli Lilly and Company, priority 1994, dated 1996)

Test system: fasted normal Sprague-Dawley rats
Assay: In vivo hyperglycemic clamp assay (glucose up-take assay)
Set-up: species or system rat
Details: 200 mg/dl plasma glucose clamp, 0.3 nmol/kg iv bolus at 60 min
Source text: In vivo Hyperglycemic Clamp Assay (Glucose Up-take Assay) Male Sprague-Dawley rats (Charles Rivers) weighing about 350 grams were allowed to acclimate to their surroundings for a week after which they were cannulated under isoflurane inhalation anesthetic. Two catheters were implanted into the jugular vein for infusions of glucose and GLP-1 fragment. Another catheter was implanted into the carotid artery for sampling blood. The catheters were exteriorized through the skin at the vertex of the head, filled with a glycerol/heparin solution (30 ml glycerol/10 ml heparin from a 1000 u/ml stock solution), and closed off with a one centimeter stainless steel plug. The rats were housed individually in wire mesh cages and were fed ad libitum on a standard rat chow diet. Each animal was given at least one week to recover from surgery before testing any GLP-1 fragments for biological activity. The rats were fasted overnight; on the morning of the experiment, sampling tubes were connected to the indwelling catheters, and the tubes were enclosed in a light weight stainless steel spring for protection. The rats were acclimated to their cages for 15 minutes. All experiments were carried out in conscious, free moving rats. A basal blood sample was taken for measurement of insulin and glucose levels at time zero on the timer. The rats were then given a bolus of 20% dextrose to raise plasma glucose to either 150 mg/dl (8.3 mM) or 200 mg/dl (11.2 mM). Plasma glucose levels were maintained at the chosen level by measuring plasma glucose levels approximately every 5 minutes and adjusting the calibrated variable infusion pump as needed to maintain the established blood glucose levels. Blood samples were collected at 45 and 60 minutes for the control period measurements. At 60 minutes into the clamp, 0.3 nmol/kg of the experimental GLP-1 fragment was injected via the jugular vein catheter and flushed with saline. […] The blood samples were centrifuged in a micro centrifuge to separate the plasma component. Plasma glucose was measured on a Beckman Glucose analyzer II using the glucose oxidase method. Plasma insulin was determined by standard radio immunoassay as per the manufacturer's directions (Diagnostic Products Corp.). The activity of the GLP-1 fragment was determined by the percentage change in glucose infusion rate and change in insulin secreted. These two parameters were compared to control rats that received only diluent. Note: This assay is based on reports that GLP-1 insulinotropic action is glucose dependent. The assay protocol eliminates variability due to falling glucose levels in other protocols using the "bolus" method. The hyperglycemic clamp involved administration of variable amounts of glucose (20% dextrose) to maintain glucose at a constant level of 8.3 or 11.2 mM in fasted normal Sprague-Dawley rats. The hyperglycemic clamp is maintained for 1 hour after which the GLP-1 fragment is injected as a bolus through the jugular vein. […] The glucose infusion rate (GIR) in the last 15 minutes of the control period and after the injection of the peptide is calculated. The activity of the peptide is determined by the increase in glucose infusion rate and change in insulin secreted after the injection of the peptide.

CC[C@H](C)[C@H](NC(=O)[C@H](Cc1ccccc1)NC(=O)[C@H](CCC(=O)O)NC(=O)[C@H](CCCCN)NC(=O)[C@H](C)NC(=O)[C@H](C)NC(=O)[C@H](CCC(N)=O)NC(=O)CNC(=O)[C@H](CCC(=O)O)NC(=O)[C@H](CC(C)C)NC(=O)[C@H](Cc1ccc(O)cc1)NC(=O)[C@H](CO)NC(=O)[C@H](CO)NC(=O)[C@@H](NC(=O)[C@H](CC(=O)O)NC(=O)[C@H](CO)NC(=O)[C@@H](NC(=O)[C@H](Cc1ccccc1)NC(=O)[C@@H](NC(=O)CNC(=O)[C@@H](N)CCC(=O)O)[C@@H](C)O)[C@@H](C)O)C(C)C)C(=O)N[C@@H](C)C(=O)N[C@@H](Cc1c[nH]c2ccccc12)C(=O)N[C@@H](CC(C)C)C(=O)N[C@H](C(=O)N[C@@H](CCCCN)C(=O)NCC(=O)N[C@@H](CCCNC(=N)N)C(N)=O)C(C)C [GLP-1(9-36)NH2]
% Change in GIR (time 60 min): 21.936%
Plasma Insulin Change (time 60 min): 2.429 ng/mL
% Change in GIR (time 62 min): -1.287%
Plasma Insulin Change (time 62 min): -0.521 ng/mL
% Change in GIR (time 64 min): 0.635%
Plasma Insulin Change (time 64 min): -0.765 ng/mL
% Change in GIR (time 66 min): 10.697%
Plasma Insulin Change (time 66 min): -0.637 ng/mL
% Change in GIR (time 68 min): 24.584%
Plasma Insulin Change (time 68 min): -0.662 ng/mL
% Change in GIR (time 70 min): 46.387%
Plasma Insulin Change (time 70 min): -0.274 ng/mL
% Change in GIR (time 75 min): 61.185%
Plasma Insulin Change (time 75 min): 0.138 ng/mL
% Change in GIR (time 80 min): 48.254%
Plasma Insulin Change (time 80 min): -0.390 ng/mL
% Change in GIR (time 85 min): 34.689%
Plasma Insulin Change (time 85 min): 0.064 ng/mL
% Change in GIR (time 90 min): 17.272%
Plasma Insulin Change (time 90 min): -0.361 ng/mL
% Change in GIR (time 100 min): 7.537%
Plasma Insulin Change (time 100 min): -0.743 ng/mL
% Change in GIR (time 110 min): -0.920%
Plasma Insulin Change (time 110 min): -0.824 ng/mL
% Change in GIR (time 120 min): 4.716%
Plasma Insulin Change (time 120 min): -0.880 ng/mL
% Change in GIR (time 130 min): 3.818%
Plasma Insulin Change (time 130 min): -0.653 ng/mL
% Change in GIR (time 140 min): -6.783%
Plasma Insulin Change (time 140 min): -0.927 ng/mL
% Change in GIR (time 150 min): 1.333%
Plasma Insulin Change (time 150 min): -0.450 ng/mL
